Source: US11066416B2, “Rapafucin derivative compounds and methods of use thereof” (The Johns Hopkins University, priority 2016, dated 2021)

Experiments:
H929 = test: Cell proliferation assay (Prolif.), H929; format: cell-based; conditions: for Prolif, H929: Table 11
Description: Cell Proliferation Assay (Prolif.) Guo et al. (2018) Nat. Chem. 11:254-63. Specific cell lines are indicated in each assay and cultured in complete growth media. Activity is scored according to the IC50 values relative to DMSO control. “Low” indicates an IC50 greater than 600 nM, “Medium” indicates an IC50 between 300 nM and 600 nM “High” indicates an IC50 less than 300 nM. “Rel.Uptake” refers to uptake activity characterization relative to a single concentration assay. “Low” indicates a response greater than 0.6 times the activity relative to DMSO, “Medium” indicates a response between 0.6 and 0.3 times the activity relative to DMSO, “High” indicates a response less than 0.3 times the activity relative to DMSO.

[1] = test system: nucleoside uptake (3H-Thymidine); test: Rel.Uptake: nucleoside uptake, single concentration assay, cell line as indicated in each table; format: cell-based; conditions: 293T, nucleoside uptake, response relative to DMSO
Description: Nucleoside Uptake Assay (uptake). Nuceloside uptake assays were performed with using 3H-Thymidine as described in Guo et al. (2018) Nat. Chem. 11:254-63. Specific cell lines are indicated in each assay and cultured in complete growth media. Activity is scored according to the IC50 values relative to DMSO control. “Low” indicates an IC50 greater than 600 nM, “Medium” indicates an IC50 between 300 nM and 600 nM “High” indicates an IC50 less than 300 nM. “Rel.Uptake” refers to uptake activity characterization relative to a single concentration assay. “Low” indicates a response greater than 0.6 times the activity relative to DMSO, “Medium” indicates a response between 0.6 and 0.3 times the activity relative to DMSO, “High” indicates a response less than 0.3 times the activity relative to DMSO.

Compound | Prolif, H929 (H929; H929 cells) | Rel. Uptake, 293T [1] | Prolif. H929 (H929; H929 cells, IC50 class relative to DMSO control) | Rel. Prolif., NCI-H929 (H929; NCI-H929 cells, single concentration, response relative to DMSO)
COc1cc(CC[C@H]2OC(=O)[C@@H]3CCCCN3C(=O)C(=O)C(C)(C)COC(=O)C=CCCN(C)C(=O)[C@@H](Cc3ccccc3)NC(=O)CN(C)C(=O)[C@@H](Cc3ccccc3)NC(=O)[C@H](Cc3ccc(O)cc3)N(C)C(=O)COc3cccc2c3)c(OC)c(OC)c1 [Compound 1582] | low | low | – | –
COc1ccc(CC[C@H]2OC(=O)[C@@H]3CCCCN3C(=O)C(=O)C(C)(C)COC(=O)C=CCCN(C)C(=O)[C@@H](Cc3ccccc3)NC(=O)CN(C)C(=O)[C@@H](Cc3ccccc3)NC(=O)[C@H](Cc3ccc(O)cc3)N(C)C(=O)COc3cccc2c3)c(OC)c1OC [Compound 1577] | medium | medium | – | –
COc1cc(O)c(CC[C@H]2OC(=O)[C@@H]3CCCCN3C(=O)C(=O)C(C)(C)COC(=O)C=CCCN(C)C(=O)[C@@H](Cc3ccccc3)NC(=O)CN(C)C(=O)[C@@H](Cc3ccccc3)NC(=O)[C@H](Cc3ccc(O)cc3)N(C)C(=O)COc3cccc2c3)cc1OC [Compound 1568] | low | low | – | –
COc1ccc(CC[C@H]2OC(=O)[C@@H]3CN(C(=O)OCC4c5ccccc5-c5ccccc54)CCN3C(=O)C(=O)C(C)(C)COC(=O)C=CCCN(C)C(=O)[C@@H](Cc3ccccc3)NC(=O)CN(C)C(=O)[C@@H](Cc3ccccc3)NC(=O)[C@H](Cc3ccc(O)cc3)N(C)C(=O)COc3cccc2c3)cc1OC [Compound 1572] | low | low | – | –
COc1ccc(CC[C@H]2OC(=O)[C@@H]3CCCCN3C(=O)C(=O)C(C)(C)COC(=O)C=CCCN(C)C(=O)[C@@H](Cc3ccccc3)NC(=O)CN(C)C(=O)[C@@H](Cc3ccccc3)NC(=O)[C@H](Cc3ccc(O)cc3)N(C)C(=O)COc3cccc2c3)c(O)c1OC [Compound 1584] | low | low | – | –
COc1ccc(CC[C@H]2OC(=O)[C@@H]3CNCCN3C(=O)C(=O)C(C)(C)COC(=O)C=CCCN(C)C(=O)[C@@H](Cc3ccccc3)NC(=O)CN(C)C(=O)[C@@H](Cc3ccccc3)NC(=O)[C@H](Cc3ccc(O)cc3)N(C)C(=O)COc3cccc2c3)cc1OC [Compound 1573] | low | low | – | –
COc1cc(CC[C@H]2OC(=O)[C@@H]3CCCCN3C(=O)C(=O)C(C)(C)COC(=O)C=CCCN(C)C(=O)[C@@H](Cc3ccccc3)NC(=O)CN(C)C(=O)[C@@H](Cc3ccccc3)NC(=O)[C@H](Cc3ccc(O)cc3)N(C)C(=O)COc3cccc2c3)cc(O)c1OC [Compound 1567] | medium | medium | – | –
COc1cc(OC)c(OC)cc1CC[C@H]1OC(=O)[C@@H]2CCCCN2C(=O)C(=O)C(C)(C)COC(=O)C=CCCN(C)C(=O)[C@@H](Cc2ccccc2)NC(=O)CN(C)C(=O)[C@@H](Cc2ccccc2)NC(=O)[C@H](Cc2ccc(O)cc2)N(C)C(=O)COc2cccc1c2 [Compound 1581] | medium | medium | – | –
COc1ccc(CC[C@H]2OC(=O)[C@@H]3CCCCN3C(=O)C(=O)C(C)(C)COC(=O)C=CCCN(C)C(=O)[C@@H](Cc3ccccc3)NC(=O)CN(C)C(=O)[C@@H](Cc3ccccc3)NC(=O)[C@H](Cc3ccc(O)cc3)N(C)C(=O)COc3cncc2c3)cc1OC [Compound 1580] | low | low | – | –
COc1ccc(CC[C@H]2OC(=O)[C@@H]3CN(C)CCN3C(=O)C(=O)C(C)(C)COC(=O)C=CCCN(C)C(=O)[C@@H](Cc3ccccc3)NC(=O)CN(C)C(=O)[C@@H](Cc3ccccc3)NC(=O)[C@H](Cc3ccc(O)cc3)N(C)C(=O)COc3cccc2c3)cc1OC [Compound 1574] | low | low | – | –
COc1ccc(CC[C@H]2OC(=O)[C@@H]3CCCCN3C(=O)C(=O)C(C)(C)COC(=O)C=CCCN(C)C(=O)[C@@H](Cc3ccccc3)NC(=O)CN(C)C(=O)[C@@H](Cc3ccccc3)NC(=O)[C@H](Cc3ccc(O)cc3)N(C)C(=O)COc3cccc2c3)c(F)c1OC [Compound 1571] | low | low | – | –
COc1ccc(CC[C@H]2OC(=O)[C@@H]3CCCCN3C(=O)C(=O)C(C)(C)COC(=O)C=CCCN(C)C(=O)[C@@H](Cc3ccccc3)NC(=O)CN(C)C(=O)[C@@H](Cc3ccccc3)NC(=O)[C@H](Cc3ccc(O)cc3)N(C)C(=O)COc3cc(F)cc2c3)cc1OC [Compound 1576] | medium | medium | – | –
COc1ccc(CC[C@H]2OC(=O)[C@@H]3CCCCN3C(=O)C(=O)C(C)(C)COC(=O)C=CCCN(C)C(=O)[C@@H](Cc3ccccc3)NC(=O)CN(C)C(=O)[C@@H](Cc3ccccc3)NC(=O)[C@H](Cc3ccc(O)cc3)N(C)C(=O)COc3cc2ccc3F)cc1OC [Compound 1578] | low | low | – | –
COc1cc(CC[C@H]2OC(=O)[C@@H]3CCCCN3C(=O)C(=O)C(C)(C)COC(=O)C=CCCN(C)C(=O)[C@@H](Cc3ccccc3)NC(=O)CN(C)C(=O)[C@@H](Cc3ccccc3)NC(=O)[C@H](Cc3ccc(O)cc3)N(C)C(=O)COc3cccc2c3)cc(OC)c1OC [Compound 1566] | medium | medium | – | –
COc1ccc(CC[C@H]2OC(=O)[C@@H]3CCCCN3C(=O)C(=O)C(C)(C)COC(=O)C=CCCN(C)C(=O)[C@@H](Cc3ccccc3)NC(=O)CN(C)C(=O)[C@@H](Cc3ccccc3)NC(=O)[C@H](Cc3ccc(O)cc3)N(C)C(=O)COc3ccc(F)c2c3)cc1OC [Compound 1575] | low | low | – | –
COc1ccc(CC[C@H]2OC(=O)[C@@H]3CCCCN3C(=O)C(=O)C(C)(C)COC(=O)C=CCCN(C)C(=O)[C@@H](Cc3ccccc3)NC(=O)CN(C)C(=O)[C@@H](Cc3ccccc3)NC(=O)[C@H](Cc3ccc(OC(=O)N4CCOCC4)cc3)NC(=O)COc3cccc2c3)cc1OC [Compound 877] | – | – | low | kmv
COc1ccc(OC)c(OC)c1CC[C@H]1OC(=O)[C@@H]2CCCCN2C(=O)C(=O)C(C)(C)COC(=O)C=CCCN(C)C(=O)[C@@H](Cc2ccccc2)NC(=O)CN(C)C(=O)[C@@H](Cc2ccccc2)NC(=O)[C@H](Cc2ccc(O)cc2)N(C)C(=O)COc2cccc1c2 [Compound 1583] | low | low | – | –
COc1cc(CC[C@H]2OC(=O)[C@@H]3CCCCN3C(=O)C(=O)C(C)(C)COC(=O)C=CCCN(C)C(=O)[C@@H](Cc3ccccc3)NC(=O)CN(C)C(=O)[C@@H](Cc3ccccc3)NC(=O)[C@H](Cc3ccc(O)cc3)N(C)C(=O)COc3cccc2c3)cc(F)c1OC [Compound 1569] | low | low | – | –
COc1ccc(CC[C@H]2OC(=O)[C@@H]3CCCCN3C(=O)C(=O)C(C)(C)COC(=O)C=CCCN(C)C(=O)[C@@H](Cc3ccccc3)NC(=O)CN(C)C(=O)[C@@H](Cc3ccccc3)NC(=O)[C@H](Cc3ccc(O)cc3)N(C)C(=O)COc3cccc2c3F)cc1OC [Compound 1579] | medium | medium | – | –
